Test results reported in US10428024B2, “Piperidinyl derivatives” (MERCK PATENT GMBH, priority 2016, dated 2019).
pIC50, pKd: −log10 of the molar value.

Experiments:
PDHK2 = PDHK2 (Homo sapiens (Human), UniProt Q15119); test: Biochemical activity testing of PDHK2: PDC inactivation assay; settings: human rec PDHK2, 5 μM ATP, read-out: IC50 PDHK2 (enzyme assay)
Excerpt: Biochemical Activity Testing of PDHK2: PDC Inactivation Assay
The biochemical activity assay for PDHK2 is based on the inactivation of PDC through phosphorylation by PDHK2. The assay is run in two steps: the enzymatic PDHK2 reaction in which isolated PDC is phosphorylated by PDHK2 with ATP as co-substrate and the PDC activity assay in which pyruvate and NAD are converted to acetyl-CoA and NADH. The PDC activity correlates to the increase in NADH and thereby is detectable directly via the increasing fluorescence signal (Exc 340 nm, Em 450 nm). Inhibition of PDHK2 results in a lower phosphorylation status and thereby a less decrease in activity of PDC and a stronger increase in NADH fluorescence signal.
The PDC inactivation assay is performed in Greiner 384-well microtiter plates and is used for high throughput screen. 4 μl of PDHK2 (human, rec, Carna Bioscience, 10 ng/μl-137 nM final concentration) and PDC (isolated from porcine heart, Sigma-Aldrich, 20 mU/ml final concentration) are incubated in the absence or presence of the test compound (10 dilution concentrations) for 30 min at room temperature in kinase buffer (15 mM potassium phosphate buffer, pH 7.0, 60 mM KCl, 1.5 mM DTT, 2.5 mM MgCl2, 0.0125% (w/v) BSA, 0.125% Pluronic F-68). The kinase reaction is started by the addition of 4 μl ATP substrate solution (fc 5 μM in kinase buffer). After 30 min incubation at 37° C. 40 μl of PDC reaction solution (100 mM Tris/HCl, pH 7.8, 0.5 mM EDTA, 1 mM MgCl2, 50 mM NaF, 0.25 mM Coenzyme A, 5 mM pyruvate, 1 mM NAD, 5 mM DTT, 1 mM thiamine pyrophosphate) is added. The first fluorescence measurement is performed on a Perkin Elmer Envision (Exc 340 nm, Em 450 nm). The reaction is incubated for 45 min at room temperature. Afterwards a second fluorescence measurement is performed and the PDC activity is calculated by the difference between both measurements. As full value for the PDHK2 assay the inhibitor-free PDHK2 reaction is used. The pharmacological zero value used is DCA (Sigma-Aldrich) in a final concentration of 3 mM. The inhibitory values (IC50) were determined using either the program Symyx Assay Explorer® or Condosseo® from GeneData.

human PDHK2 (12-407) = human PDHK2 (12-407) (Homo sapiens (Human), UniProt Q15119); test: Isothermal titration calorimetry (ITC); settings: 30° C., pH 7.5; read-out: Binding (ITC) KD
Protocol: Isothermal Titration Calorimetry
ITC measurements were performed with a VP-ITC micro calorimeter (Microcal, LLC/GE Healthcare Bio-Sciences AB, Uppsala, Sweden). In general titrations were performed by titrating the protein (50 μM) to the test compound (5 μM) in 12 μl injections. All binding experiments were carried out at 30° C. In general the test compounds were diluted form DMSO stock solutions into the measurement buffer with a maximum final concentration of 1% DMSO. The measurement buffer was 20 mM HEPES, 135 mM KCl, 1 mM TCEP, 2 mM MgCl2, 15 mM NaH2PO4, pH 7.5. The human PDHK2 (12-407) was produced in E. coli as his-tagged protein and purified by affinity chromatography. The tag was removed by side specific proteolysis. Before titration the protein buffer was changed to the measurement buffer containing the same DMSO concentration as the test compound dilution. ITC data analysis was performed using Origin 7 calorimetry software from the same supplier. For most measurements a binding model of one binding site was assumed. According to the applied mathematical model it is possible to calculate the binding constant (KA), the observed binding enthalpy (ΔH^obs) as well as the stoichiometry (N) of the formed complex. Preceding analysis the raw data was corrected for the heats of dilution by extrapolating from the saturation value from the end of titration. In order to allow for direct comparison between the respective experimental series and protein preparations the protein concentration was corrected by referencing titrations to a well behaved standard inhibitor. The apparent stoichiometry values defined the fraction of binding competent protein and compensated for relative errors in protein concentration measurements. This corrected protein concentration was used to set up ITC experiment series with test compounds. Any deviations from ideal 1:1 stoichiometry observed here were attributed to errors in compound concentration. This nominal compound concentration was corrected as well to achieve 1:1 stoichiometry in the fit.

[1] = tested on: PDH-E1alpha (pSer300) in HEK293T cells; test: Cellular immunofluorescence assay (Anti-PDH-E1alpha (pSer300)) in HEK293T cells; type: cell-based; settings: Homo sapiens, HEK-293T, 5 hours incubation, read-out: IC50 (cell data)
Protocol: Cellular Assay for Determination of Compound Activities
Compound activities were determined in a cellular immunofluorescence assay.
Human HEK293T cells were seeded into black 384-well plates with clear bottom and grown overnight.
Next day, test compounds were added to the wells and the plates incubated for 5 hours. Following this, cells were fixed with formaldehyde, permeabilised and blocked. The primary antibody, Anti-PDH-E1alpha (pSer300), AP1064 (Merck Millipore) was added and incubated overnight in the plate wells. Next, cells were washed and the secondary antibody, Alexa Fluor 488, goat anti-rabbit ab (A-11008, Invitrogen) was added together with Hoechst 33258 (H3569, Invitrogen) and incubated for 1 hour in the plate wells. Finally, cells were washed and the plates were measured on the laser scanning cytometer acumen hci (TTpLabtech).
The raw data were normalized against a pharmacological inhibitor control and dose response curves were generated by plotting the percent effect values using the software package Genedata screener (Genedata).

Q: How did the pIC50 (PDHK2) turn out when `C[C@@H]1CN(C(=O)[C@@](C)(O)C(F)(F)F)CC[C@@H]1C(=O)N(C)c1ccc(Cl)cc1` [Compound A10, (3S,4S)—N-(4-chlorophenyl)-N,3-dimethyl-1-[(2R)-3,3,3-trifluoro-2-hydroxy-2-methylpropanoyl]piperidine-4-carboxamide] was run?
A: 6.96

Q: And the pKd (human PDHK2 (12-407))?
A: 7.59

Q: And the pIC50 [1]?
A: 6.77

Q: With `CCN(C(=O)c1ccc(C#N)cc1)C1CCN(C(=O)[C@@](C)(O)C(F)(F)F)CC1` [Compound A66, 4-Cyano-N-ethyl-N-[1-((R)-3,3,3-trifluoro-2-hydroxy-2-methyl-propionyl)-piperidin-4-yl]-benzamide] as the compound, how does the pIC50 (PDHK2) read?
A: 5.68

Q: And the pKd (human PDHK2 (12-407))?
A: 6.46

Q: What about the pIC50 [1] of the same compound?
A: 5.57

Q: With `Cc1ccc(C(=O)N(C)[C@H]2CCN(C(=O)[C@@](C)(O)C(F)(F)F)C[C@H]2C)c(F)c1` [Compound A27, 2-Fluoro-N,4-dimethyl-N-[(3R,4S)-3-methyl-1-[(2R)-3,3,3-trifluoro-2-hydroxy-2-methylpropanoyl]piperidin-4-yl]benzamide] as the compound, how does the pIC50 (PDHK2) read?
A: 6.52

Q: And the pKd (human PDHK2 (12-407))?
A: 7.89

Q: And the pIC50 [1]?
A: 8.03

Q: With `Cc1ccc(N(C)C(=O)C2CCN(C(=O)[C@@](C)(O)C(F)(F)F)CC2)cc1` [Compound A1, 1-((R)-3,3,3-Trifluoro-2-hydroxy-2-methyl-propionyl)-piperidine-4-carboxylic Acid Methyl-p-Tolyl-Amide] as the compound, how does the pIC50 (PDHK2) read?
A: 5.96

Q: What about the pKd (human PDHK2 (12-407)) of the same compound?
A: 6.89

Q: What about the pIC50 [1] of the same compound?
A: 5.28

Q: `Cc1ccc(C(=O)N(C)[C@H]2CCN(C(=O)[C@@](C)(O)C(F)(F)F)C[C@H]2C)cc1` [Compound A24, N,4-Dimethyl-N-[(3R,4S)-3-methyl-1-[(2R)-3,3,3-trifluoro-2-hydroxy-2-methylpropanoyl]piperidin-4-yl]benzamide] was tested. Which pIC50 (PDHK2) did it give?
A: 6.89

Q: What about the pKd (human PDHK2 (12-407)) of the same compound?
A: 7.80

Q: What about the pIC50 [1] of the same compound?
A: 6.54

Q: `C[C@@H]1CN(C(=O)[C@@](C)(O)C(F)(F)F)CC[C@@H]1N(C)C(=O)c1ccc(F)cc1Cl` [Compound A50, 2-Chloro-4-fluoro-N-methyl-N-[(3R,4S)-3-methyl-1-[(2R)-3,3,3-trifluoro-2-hydroxy-2-methylpropanoyl]piperidin-4-yl]benzamide] was tested. Which pIC50 (PDHK2) did it give?
A: 6.82

Q: What about the pKd (human PDHK2 (12-407)) of the same compound?
A: 7.89

Q: And the pIC50 [1]?
A: 7.21

Q: Which results are given for `Cc1ccc(N(C)C(=O)[C@H]2CCN(C(=O)[C@@](C)(O)C(F)(F)F)C[C@H]2C)cc1` [Compound A7, (3S,4S)—N,3-Dimethyl-N-(4-methylphenyl)-1-[(2R)-3,3,3-trifluoro-2-hydroxy-2-methylpropanoyl]piperidine-4-carboxamide]?
A: pIC50 (PDHK2): 6.80; pKd (human PDHK2 (12-407)): 7.51; pIC50 [1]: 7.72

Q: What does the source list for `Cc1ccc(C(=O)N(C)C2CCN(C(=O)[C@@](C)(O)C(F)(F)F)CC2)cc1` [Compound A17, N,4-Dimethyl-N-{1-[(2R)-3,3,3-trifluoro-2-hydroxy-2-methylpropanoyl]piperidin-4-yl}benzamide]?
A: pIC50 (PDHK2): 6.60; pKd (human PDHK2 (12-407)): 6.96; pIC50 [1]: 6.00

Q: What does the source list for `CC1CN(C(=O)[C@@](C)(O)C(F)(F)F)CCC1C(=O)N(C)c1ccc(Cl)cc1` (stereo partly drawn) [Compound A9, N-(4-chlorophenyl)-N,3-dimethyl-1-[(2R)-3,3,3-trifluoro-2-hydroxy-2-methylpropanoyl]piperidine-4-carboxamide]?
A: pIC50 (PDHK2): 6.57; pKd (human PDHK2 (12-407)): 7.00; pIC50 [1]: 6.64

Q: With `CCN(C(=O)c1ccc(C)cc1F)C1CCN(C(=O)[C@@](C)(O)C(F)(F)F)CC1` [Compound A64, N-Ethyl-2-fluoro-4-methyl-N-[1-((R)-3,3,3-trifluoro-2-hydroxy-2-methyl-propionyl)-piperidin-4-yl]-benzamide] as the compound, how does the pIC50 (PDHK2) read?
A: 6.39

Q: What about the pKd (human PDHK2 (12-407)) of the same compound?
A: 7.16

Q: What about the pIC50 [1] of the same compound?
A: 6.51

Q: Which results are given for `CN(C(=O)C1CCN(C(=O)[C@@](C)(O)C(F)(F)F)CC1)c1ccc(Cl)cc1` [Compound A5, 1-((R)-3,3,3-Trifluoro-2-hydroxy-2-methyl-propionyl)-piperidine-4-carboxylic acid (4-chloro-phenyl)-methyl-amide]?
A: pIC50 (PDHK2): 6.23; pKd (human PDHK2 (12-407)): 6.72; pIC50 [1]: 5.55

Q: Which results are given for `C[C@@H]1CN(C(=O)[C@@](C)(O)C(F)(F)F)CC[C@@H]1N(C)C(=O)c1ccc(F)cc1` [Compound A29, 4-Fluoro-N-methyl-N-[(3R,4S)-3-methyl-1-[(2R)-3,3,3-trifluoro-2-hydroxy-2-methylpropanoyl]piperidin-4-yl]benzamide]?
A: pIC50 (PDHK2): 6.60; pKd (human PDHK2 (12-407)): 7.42; pIC50 [1]: 6.54

Q: `C[C@@H]1CN(C(=O)[C@@](C)(O)C(F)(F)F)CC[C@@H]1N(C)C(=O)c1ccc(F)cc1F` [Compound A38, 2,4-Difluoro-N-methyl-N-[(3R,4S)-3-methyl-1-[(2R)-3,3,3-trifluoro-2-hydroxy-2-methylpropanoyl]piperidin-4-yl]benzamide] was tested. Which pIC50 (PDHK2) did it give?
A: 6.74

Q: And the pKd (human PDHK2 (12-407))?
A: 7.72

Q: And the pIC50 [1]?
A: 6.96

Q: `C[C@@H]1CN(C(=O)[C@@](C)(O)C(F)(F)F)CC[C@@H]1N(C)C(=O)c1ccc(F)cn1` [Compound A53, 5-Fluoro-N-methyl-N-[(3R,4S)-3-methyl-1-[(2R)-3,3,3-trifluoro-2-hydroxy-2-methylpropanoyl]piperidin-4-yl]pyridine-2-carboxamide] was tested. Which pIC50 (PDHK2) did it give?
A: 6.39

Q: And the pKd (human PDHK2 (12-407))?
A: 7.29

Q: And the pIC50 [1]?
A: 6.47

Q: With `CN(C(=O)C1CCN(C(=O)[C@@](C)(O)C(F)(F)F)CC1)c1ccc(C(F)(F)F)cc1Cl` [Compound A3, 1-((R)-3,3,3-Trifluoro-2-hydroxy-2-methyl-propionyl)-piperidine-4-carboxylic acid (2-chloro-4-trifluoromethyl-phenyl)-methyl-amide] as the compound, how does the pIC50 (PDHK2) read?
A: 6.39

Q: And the pKd (human PDHK2 (12-407))?
A: 7.42

Q: And the pIC50 [1]?
A: 5.68
